Source: patent US10253069B2, “Compositions and methods for regulating arterial tone” (University of Virginia Patent Foundation, priority 2012, dated 2019)

Legend:
eNOS and Hb α complex = biological target: T1, eNOS and Hb α complex (Mus musculus, UniProt P70313); test: Proximity ligation assay for eNOS and Hb α on thoracodorsal arteries
T1 construct: from tissue; host or cells: isolated mouse thoracodorsal arteries
T1 sequence (P70313 2-1202 limits assumed): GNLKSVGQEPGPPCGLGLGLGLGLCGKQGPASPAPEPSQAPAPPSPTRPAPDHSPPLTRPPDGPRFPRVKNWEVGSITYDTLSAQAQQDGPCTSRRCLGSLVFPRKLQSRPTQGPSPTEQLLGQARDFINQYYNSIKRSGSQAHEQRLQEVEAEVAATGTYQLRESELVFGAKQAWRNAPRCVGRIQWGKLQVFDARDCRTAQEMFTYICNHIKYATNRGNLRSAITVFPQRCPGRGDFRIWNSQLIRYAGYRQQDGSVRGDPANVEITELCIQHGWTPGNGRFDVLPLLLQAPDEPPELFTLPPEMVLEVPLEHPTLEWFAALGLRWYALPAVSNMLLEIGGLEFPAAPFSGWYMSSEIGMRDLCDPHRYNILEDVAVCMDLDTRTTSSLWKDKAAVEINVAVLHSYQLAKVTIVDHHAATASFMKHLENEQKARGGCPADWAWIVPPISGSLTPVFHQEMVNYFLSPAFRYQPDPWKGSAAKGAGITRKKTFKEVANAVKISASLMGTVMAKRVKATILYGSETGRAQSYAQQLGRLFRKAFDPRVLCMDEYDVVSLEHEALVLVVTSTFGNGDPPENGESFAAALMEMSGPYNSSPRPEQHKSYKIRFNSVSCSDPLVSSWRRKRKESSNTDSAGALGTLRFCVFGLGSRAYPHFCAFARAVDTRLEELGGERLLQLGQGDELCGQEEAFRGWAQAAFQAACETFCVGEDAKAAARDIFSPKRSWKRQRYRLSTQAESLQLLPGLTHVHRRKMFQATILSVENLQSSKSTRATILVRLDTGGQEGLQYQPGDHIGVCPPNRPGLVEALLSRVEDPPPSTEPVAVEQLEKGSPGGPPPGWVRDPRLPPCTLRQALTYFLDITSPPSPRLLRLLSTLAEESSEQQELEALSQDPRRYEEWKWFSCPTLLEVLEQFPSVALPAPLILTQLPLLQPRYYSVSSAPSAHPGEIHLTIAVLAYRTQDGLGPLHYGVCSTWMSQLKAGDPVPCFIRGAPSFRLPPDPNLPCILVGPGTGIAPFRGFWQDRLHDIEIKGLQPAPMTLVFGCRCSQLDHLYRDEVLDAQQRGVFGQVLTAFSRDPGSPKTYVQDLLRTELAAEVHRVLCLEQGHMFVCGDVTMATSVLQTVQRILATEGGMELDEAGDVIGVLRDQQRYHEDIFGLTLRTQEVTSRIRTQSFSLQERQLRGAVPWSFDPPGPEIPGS
Protocol: Isolated thoracodorsal arteries were perfused with Scr X or Hb α X peptide (5 μmol/L) for 20 minutes and immediately immersed in 4% paraformaldehyde, paraffin-embedded and sectioned as previously described^12. Next, sections were de-paraffinized, blocked and incubated with 1:500 mouse anti-eNOS (BD Biosciences), 1:500 rabbit anti-Hb α and 1:500 mouse anti-caveolin-1 (BD Biosciences) primary antibodies overnight at 4° C. The following day, secondary antibodies conjugated with oligonucleotide PLA probes were added, ligated and rolling circle amplification with fluorescent oligonucleotides identified positive interaction sites as previously described^9. All images were visualized and captured using an Olympus Fluoview 1000 confocal microscope. For proximity ligation assay quantitation, positive interactions indicated by red punctates on the endothelium were counted and divided by the circumference of the lumen using Metamorph software.

[1] = tested on: human coronary endothelial cells; test: Nitrite measurements from media of coronary endothelial cells; assay type: cell-based
Protocol: Primary coronary endothelial cells (Lonza) were cultured on plastic 6-well dishes as previously described^9. For studies involving basal NO release, endothelial cells were incubated with 5 μmol/L of Scr X or Hb α X for 20 minutes followed by medium collection and nitrite measurements as described below. For bradykinin studies, coronary endothelial cells were grown to confluence followed by serum starvation overnight in a cocktail of Lonza EGM-2 medium supplemented with EGM-2 bullet kit and Opti MEM reduced growth medium using a ratio of 1:9 respectively. The next day, endothelial cells were incubated with Scr X or Hb α X peptide for 20 minutes followed by the addition of 10 μM bradykinin (Sigma) for 5 minutes followed by medium collection for nitrite measurements as described below.
Quantitation of nitrite in culture medium was measured by chemiluminescence using a Sievers nitric oxide analyzer according to manufacturer's instructions. Quantitation of peaks was analyzed using Origin Pro 6.0 as previously described^9.

## Peptide LSFPTTKTYF (SEQ ID NO:2), first ten amino acids of the Hb α sequence, with HIV-tat tag YGRKKRRQRRR at the N-terminus [Hb α X]
eNOS and Hb α complex; ex vivo studies
  Inhibition of association: > 90%
eNOS and Hb α complex; thoracodorsal arteries, 5 μmol/L peptide, 20 minutes
  Colocalization / protein-protein interaction between eNOS and Hb α: significant loss of protein-protein interaction
[1]; 10 μM bradykinin, 5 minutes, Scr X vs Hb α X
  Nitrite accumulation following stimulation with bradykinin: no change
[1]; unstimulated cells
  Accumulation of nitrite in the culture medium, basal: no differences
